# Measurements taken from article PMC11555717 (Cancer Medicine, 2024).
# Square brackets hold non-standard residues; d marks the D form. Peptide text beside a SMILES is read from it. * marks the point of attachment. Dolaproine = CO[C@@H]([C@@H]1CCCN1)[C@@H](C)C(=O)O; Dil = CC[C@H](C)[C@H](NC)[C@@H](CC(=O)O)OC; X1 = C[C@@H](N*)[C@@H](O)c1ccccc1; NMeV = CN[C@H](C(=O)O)C(C)C
# B1: disitamab vedotin (conjugate, chains of the INN, looked up)
# VH: EVQLVQSGAEVKKPGATVKISCKVSGYTFTDYYIHWVQQAPGKGLEWMGRVNPDHGDSYYNQKFKDKATITADKSTDTAYMELSSLRSEDTAVYFCARNYLFDHWGQGTLVTVSS
# VL: DIQMTQSPSSVSASVGDRVTITCKASQDVGTAVAWYQQKPGKAPKLLIYWASIRHTGVPSRFSGSGSGTDFTLTISSLQPEDFATYYCHQFATYTFGGGTKVEIK
# modifications: vedotin (MMAE) payload
# How the values were obtained:
# [1] = EV-203 pharmacokinetics of ADC, TAb and free MMAE in serum or plasma; assay type: in vivo, human; settings: for Time of peak free MMAE concentration postinfusion: after end of enfortumab vedotin infusion
# Description: In the PK cohort (i.e., PK analysis set), intensive PK sampling was performed wherein blood samples for analysis of ADC, total antibody (TAb), and free (unconjugated) MMAE were collected at prespecified time points. […] Blood samples for antitherapeutic antibodies (ATAs) were collected predose on Day 1 of cycles 1 to 4, 6, 8, 10, and within 30–37 days after the last study dose. Validated assays were used to measure concentrations of ADC, TAb, and free MMAE in serum or plasma and to assess ATA levels.
# All patients who received any amount of study drug were included in the primary analyses of efficacy endpoints and safety analyses. The PK analyses included data from patients in the PK cohort who received at least 3 of 4 doses of the study drug through cycle 2 Day 1 and had at least five blood samples collected and assayed for measurements of ADC, TAb, or free MMAE concentrations to determine at least one PK parameter.
# [2] = tested on: patients with HER2-positive (IHC2+ or 3+) unresectable locally advanced or mUC; parameters: method as in earlier work; settings: pooled two phase 2 studies, combined N = 107; 95% CI 40.6%–60.3%; cited from earlier work
# [3] = cycle 1 Day 1, Non-PK cohort, mean (SD)
# [4] = cycle 1 Day 1, PK cohort, mean (SD)
# [5] = cycle 1 Day 8, Non-PK cohort, mean (SD)
# [6] = cycle 1 Day 8, PK cohort, mean (SD)
# [7] = cycle 1 Day 15, Non-PK cohort, mean (SD)
# [8] = cycle 1 Day 15, PK cohort, mean (SD)
# [9] = plasma, Cycle 1 Day 15, third to first dose, mean (SD)
molecule,measurement,setting,value
"CC[C@H](C)[C@@H]([C@@H](CC(=O)N1CCC[C@H]1[C@H](OC)[C@@H](C)C(=O)N[C@H](C)[C@@H](O)c1ccccc1)OC)N(C)C(=O)[C@@H](NC(=O)[C@@H](NC)C(C)C)C(C)C [Free MMAE, monomethyl auristatin E] (H-[NMeV]V[Dil][Dolaproine]-X1)",Plasma concentration at end of infusion,[1]; [3],376 (241) [23] pg/mL
same,Plasma concentration at end of infusion,[1]; [4],357 (154) [13] pg/mL
same,Plasma concentration at end of infusion,[1]; [5],2720 (1490) [17] pg/mL
same,Plasma concentration at end of infusion,[1]; [6],1680 (1290) [12] pg/mL
same,Plasma concentration at end of infusion,[1]; [7],3350 (2600) [11] pg/mL
same,Plasma concentration at end of infusion,[1]; [8],2110 (1680) [10] pg/mL
same,Median t max (range),"[1]; plasma, Cycle 1 Day 1",2.00 (1.87–2.93) days
same,AUC0–7d,"[1]; plasma, Cycle 1 Day 1, after enfortumab vedotin 1.25 mg/kg IV, mean (SD)",16.9 (9.2) day ng/mL
same,C max,"[1]; plasma, Cycle 1 Day 1, mean (SD)",3.3 (1.74) ng/mL
same,Median t max (range),"[1]; plasma, Cycle 1 Day 15",1.93 (0.86–2.92) days
same,AUC0–7d,"[1]; plasma, Cycle 1 Day 15, after enfortumab vedotin 1.25 mg/kg IV, mean (SD)",23.3 (16.4) day ng/mL
same,C max,"[1]; plasma, Cycle 1 Day 15, mean (SD)",4.5 (3.58) ng/mL
same,"R ac (AUC0–7d), accumulation ratio",[1]; [9],1.32 (0.486)
same,"R ac (Cmax), accumulation ratio",[1]; [9],1.28 (0.499)
same,Time of peak free MMAE concentration postinfusion,"[1]; plasma, listed as MMAE",approximately 2 days
same,Time of peak free MMAE concentration postinfusion,"[1]; plasma, listed as free MMAE",2 to 3 days
same,Mean accumulation ratios (third to first dose) for maximum concentration and AUC0–7d,"[1]; range over ADC, TAb and free MMAE, repeat dosing",1.03 to 1.32
TAb: total antibody analyte measured in serum after enfortumab vedotin dosing,Serum concentration at end of infusion,[1]; [3],"29,100 (5050) [23] ng/mL"
same,Serum concentration at end of infusion,[1]; [4],"30,800 (5730) [13] ng/mL"
same,Serum concentration at end of infusion,[1]; [5],"29,900 (5450) [17] ng/mL"
same,Serum concentration at end of infusion,[1]; [6],"34,300 (6640) [12] ng/mL"
same,Serum concentration at end of infusion,[1]; [7],"27,600 (6210) [11] ng/mL"
same,Serum concentration at end of infusion,[1]; [8],"33,600 (5450) [10] ng/mL"
same,AUC0–7d,"[1]; serum, Cycle 1 Day 1, PK cohort, 1.25 mg/kg IV, mean (SD)",77.4 (17.3) day μg/mL
same,C max,"[1]; serum, Cycle 1 Day 1, PK cohort, mean (SD)",31.7 (5.73) μg/mL
same,AUC0–7d,"[1]; serum, Cycle 1 Day 15, PK cohort, 1.25 mg/kg IV, mean (SD)",94.7 (15.7) day μg/mL
same,C max,"[1]; serum, Cycle 1 Day 15, PK cohort, mean (SD)",34.4 (4.64) μg/mL
same,Time of peak serum concentration,"[1]; serum, PK cohort cycle 1",at the end of the enfortumab vedotin infusion
B1,ORR,[2],50.5%
